ChEMBL document CHEMBL5338779, “Discovery, Synthesis, and In Vitro Characterization of 2,3 Derivatives of 4,5,6,7-Tetrahydro-Benzothiophene as Potent Modulators of Retinoic Acid Receptor-Related Orphan Receptor γt” (J Med Chem, 2023)
In brackets after ≈: the same amount, converted by molar mass. Activity calls are given as the source filed them. No cut-off for these calls is given here.

Columns and labels:
[1] = Lipophilicity, logD of the compound at pH 7.4; details: buffer
[2] = target: T1, Nuclear receptor ROR-gamma (Homo sapiens, UniProt P51449); assay: biochemical; format: cell-based, Insect cell
T1 sequence (P51449 whole entry): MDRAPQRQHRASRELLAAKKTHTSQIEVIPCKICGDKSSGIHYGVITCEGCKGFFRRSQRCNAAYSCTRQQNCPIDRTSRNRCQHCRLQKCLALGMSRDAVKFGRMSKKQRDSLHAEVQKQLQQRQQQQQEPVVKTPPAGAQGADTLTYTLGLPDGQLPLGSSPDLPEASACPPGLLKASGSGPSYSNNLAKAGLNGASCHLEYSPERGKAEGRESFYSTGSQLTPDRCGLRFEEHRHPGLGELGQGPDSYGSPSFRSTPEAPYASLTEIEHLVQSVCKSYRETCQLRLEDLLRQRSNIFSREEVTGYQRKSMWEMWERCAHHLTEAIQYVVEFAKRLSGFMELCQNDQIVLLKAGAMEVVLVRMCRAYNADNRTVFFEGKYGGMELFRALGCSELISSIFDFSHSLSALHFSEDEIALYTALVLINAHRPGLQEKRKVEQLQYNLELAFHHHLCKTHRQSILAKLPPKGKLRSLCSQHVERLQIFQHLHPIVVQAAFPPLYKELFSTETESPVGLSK

[3] = Apparent permeability across apical to basolateral side in human Caco-2 cells measured after 90 mins by LC-MS/MS analysis; details: caco-2, 1.5 h
[4] = Apparent permeability across apical to basolateral side in MDCKII-MDR1 cells at 10 uM incubated for 90 mins by LC-MS/MS analysis; details: dog, mdck-mdr1, 1.5 h
[5] = Efflux ratio of apparent permeability from apical to basolateral side over basolateral to apical side in MDCKII-MDR1 cells at 10 uM incubated for 90 mins in presence of cyclosporine A by LC-MS/MS analysis; details: dog, mdck-mdr1, 1.5 h
[6] = Substrate activity at P-gp in MDCKII-MDR1 cells assessed as efflux ratio of apparent permeability from apical to basolateral side over basolateral to apical side at 10 uM incubated for 90 mins by LC-MS/MS analysis; details: dog, mdckii-mdr1, 1.5 h
[7] = target: T2, Nuclear receptor ROR-gamma (Homo sapiens) (UniProt P51449); details: HEK293T, filed as inverse agonist, dose 0.004-1000 nM
T2 sequence (whole entry): T1 sequence (P51449 whole entry)

[8] = physchem; details: PBS, pH 7.4
[9] = physchem; details: citrate buffer, pH 5
[10] = physchem; details: fasted state simulated gastric fluid, pH 1.6
[11] = buffer, pH 7.4, 2 h
[12] = target: T2, Nuclear receptor ROR-gamma (Homo sapiens); assay: Inverse agonist activity at RORgammaT in human PBMC cells assessed as reduction in CD4-positive IL17A-positive cells in Th17 polarization at 10 nM incubated for 48 hrs relative to control; format: cell-based; set-up: scale not given: the % may be the effect or the level left
[13] = target: T2, Nuclear receptor ROR-gamma (Homo sapiens); assay: Inverse agonist activity at RORgammaT in human PBMC cells assessed as reduction in CD4-positive IL21-positive cells in Th17 polarization at 10 nM incubated for 48 hrs relative to control; format: cell-based; set-up: scale not given: the % may be the effect or the level left
[14] = tested on: PBMC; assay: Cytotoxicity against human PBMC cells assessed as reduction in cell viability by flow cytometry method; format: toxicity, cell-based
[15] = tested on: PBMC; assay: Cytotoxicity against human PBMC cells assessed as cell death by flow cytometry method; format: toxicity, cell-based
[16] = tested on: PBMC; assay: Cytotoxicity against human PBMC cells assessed as increase in cell proliferation by flow cytometry method; format: toxicity, cell-based
[17] = target: T2, Nuclear receptor ROR-gamma (Homo sapiens); assay: Inverse agonist activity at RORgammaT in human PBMC cells assessed as reduction in IFNgamma-positive T cells in Th17 polarization at 10 nM incubated for 48 hrs; format: cell-based
[18] = target: T2, Nuclear receptor ROR-gamma (Homo sapiens); assay: Inverse agonist activity at RORgammaT in human PBMC cells assessed as reduction in IL22-positive T cells in Th17 polarization at 10 nM incubated for 48 hrs; format: cell-based
[19] = tested on: PBMC; assay: Induction of apoptosis in human PBMC cells by flow cytometry method; format: toxicity, cell-based

| Structure (SMILES) | logD [1] | IC50 [2] | Papp [3] | Papp [4] | deltaG [7] | solubility kinetic at 2 h [8] | solubility kinetic at 2 h [9] | solubility kinetic at 2 h [10] | further results |
| --- | --- | --- | --- | --- | --- | --- | --- | --- | --- |
| CC1CCCN1C(=O)c1c(NC(=O)c2cccnc2)sc2c1CCCC2 (stereo not drawn) | 3.68 | 3.51 nM | 34.2 10^-6 cm/s | 29 10^-6 cm/s | -31.7 kJ/mol | 31.3 µM (≈ 11.6 µg/mL) | 392 µM (≈ 145 µg/mL) | ≥ 400 µM | Ratio [5]: 0.8; Ratio [6]: 0.8 |
| Cc1ccnc(SCC(=O)Nc2sc3c(c2C(=O)NCc2ccccc2)CCCC3)n1 | 4.92 | 0.69 nM | – | – | -42.7 kJ/mol | 3.23 µM (≈ 1.46 µg/mL) | – | – | – |
| O=C(Nc1sc2c(c1C(=O)NCC1CCNCC1)CCCC2)c1cccnc1 | 0.4 | 57.3 nM | – | – | -30.5 kJ/mol | 84.7 µM (≈ 33.8 µg/mL) | – | – | – |
| CC1(C)CCc2c(sc(NC(=O)c3cnccn3)c2C(=O)N2CCOCC2)C1 | 3 | – | – | – | – | 34.8 µM (≈ 13.9 µg/mL) | – | – | – |
| CSc1ncc(Cl)c(C(=O)Nc2sc3c(c2C(=O)NCc2ccccc2)CCCC3)n1 | 5.45 | 0.4 nM | 4.2 10^-6 cm/s | 8 10^-6 cm/s | -48.7 kJ/mol | ≤ 1 µM | – | – | Activity [12]: 20%; Ratio [5]: 0.3; Activity [13]: 20%; Activity [14]: Non-Toxic; Activity [15]: Non-Toxic; Activity [16]: Non-Toxic; Activity [17]: inactive; Activity [18]: inactive; Activity [19]: Non-Toxic; Ratio [6]: 0.3 |
| CCC1CCc2c(sc(NC(=O)c3ccnn3C)c2C(=O)Nc2ccccc2C)C1 (stereo not drawn) | 4.72 | – | 1.8 10^-6 cm/s | 3.2 10^-6 cm/s | – | ≤ 1 µM | 8.13 µM (≈ 3.44 µg/mL) | 2.8 µM (≈ 1.18 µg/mL) | – |
| CCC1CCN(C(=O)c2c(NC(=O)c3cccnc3)sc3c2CCCC3)C1 (stereo not drawn) | 4.05 | – | – | – | – | 32.9 µM (≈ 12.6 µg/mL) | – | – | – |
| Cc1cnc(S(C)(=O)=O)nc1C(=O)Nc1sc2c(c1C(=O)c1ccccc1)CCCC2 | 3.94 | 16.6 nM | – | – | -42.1 kJ/mol | ≤ 1 µM | – | – | – |
| CC1CCc2c(sc(NC(=O)c3ccccc3F)c2C(=O)N2CCN(C)CC2)C1 (stereo not drawn) | 3.59 | – | 28.2 10^-6 cm/s | 28.9 10^-6 cm/s | – | 27.7 µM (≈ 11.5 µg/mL) | 349 µM (≈ 145 µg/mL) | ≥ 400 µM | – |
| O=C(Nc1sc2c(c1C(=O)c1ccccc1)CCCC2)c1cnccn1 | 4.15 | 19.6 nM | – | – | -42.1 kJ/mol | 18.3 µM (≈ 6.67 µg/mL) | – | – | – |

Continued, in another order:

| logD [1] | IC50 [2] | Papp [3] | Papp [4] | deltaG [7] | solubility kinetic at 2 h [8] | solubility kinetic at 2 h [9] | solubility kinetic at 2 h [10] | Structure (SMILES) | further results |
| --- | --- | --- | --- | --- | --- | --- | --- | --- | --- |
| 2.6 | 45.8 nM | 4.4 10^-6 cm/s | 5.2 10^-6 cm/s | -25.8 kJ/mol | 79.3 µM (≈ 30.6 µg/mL) | 365 µM (≈ 141 µg/mL) | 330 µM (≈ 127 µg/mL) | O=C(Nc1sc2c(c1C(=O)N1CCC(CO)C1)CCCC2)c1cccnc1 (stereo not drawn) | Ratio [5]: 1.4; Ratio [6]: 4.7 |
| 3.06 | 1.17 nM | 4.6 10^-6 cm/s | 6.8 10^-6 cm/s | -52.3 kJ/mol | 99.3 µM (≈ 42.4 µg/mL) | 357 µM (≈ 152 µg/mL) | ≥ 400 µM | CN1CCN(CC(=O)Nc2sc3c(c2C(=O)NCc2ccccc2)CCCC3)CC1 | Ratio [5]: 1.2; Ratio [6]: 1.1 |
| 4.44 | – | 18 10^-6 cm/s | 27.8 10^-6 cm/s | – | 8.05 µM (≈ 3.55 µg/mL) | 13.6 µM (≈ 5.97 µg/mL) | 267 µM (≈ 118 µg/mL) | Cn1ccnc1SCC(=O)Nc1sc2c(c1C(=O)NCc1ccccc1)CCCC2 | – |
| 1.62 | 3.43 nM | – | – | -55.9 kJ/mol | 93.6 µM (≈ 37.1 µg/mL) | – | – | Cn1cnc(CNC(=O)c2c(NC(=O)c3cccnc3)sc3c2CCCC3)n1 | – |
| 4.11 | 1.71 nM | – | – | – | – | – | – | CCc1ccc(N(CC(C)C)S(=O)(=O)c2ccc(OCC3CCOCC3)c(CO)c2)cc1 [GSK2981278] | Kinetic_solubility [11]: Insoluble |
| 4.45 | – | – | – | – | 27 µM (≈ 10.7 µg/mL) | 23.7 µM (≈ 9.43 µg/mL) | ≥ 200 µM | C[C@@H]1CCN(C(=O)c2c(NC(=O)c3cccnc3)sc3c2CCCC3)[C@H](C)C1 (single isomer, unassigned) | – |
| 3.28 | 4.45 nM | 1.4 10^-6 cm/s | 2.5 10^-6 cm/s | -40.8 kJ/mol | 40.2 µM (≈ 20.7 µg/mL) | 9.72 µM (≈ 5.01 µg/mL) | 1.7 µM (≈ 0.876 µg/mL) | CSc1ncc(Cl)c(C(=O)Nc2sc3c(c2C(=O)NC2CCS(=O)(=O)C2)CCC(C)C3)n1 (stereo not drawn) | Ratio [5]: 1.1; Ratio [6]: 8.7 |
| 2.85 | – | – | – | – | 90.9 µM (≈ 32.2 µg/mL) | – | – | C[C@@H](C#N)NC(=O)c1c(NC(=O)c2cccnc2)sc2c1CCCC2 | – |
| 4.57 | – | 1.2 10^-6 cm/s | 1.3 10^-6 cm/s | – | 12.4 µM (≈ 5.29 µg/mL) | 3.02 µM (≈ 1.29 µg/mL) | 364 µM (≈ 155 µg/mL) | CC1CCN(CC(=O)Nc2sc3c(c2C(=O)NCc2ccccc2)CCCC3)CC1 | – |
| 5.06 | – | – | – | – | 10.6 µM (≈ 4.83 µg/mL) | – | – | CN1CCN(C(=O)c2c(NC(=O)c3ccccc3F)sc3c2CCC(C(C)(C)C)C3)CC1 (stereo not drawn) | – |
| 4.43 | 2.07 nM | – | – | -42.6 kJ/mol | 28.8 µM (≈ 11 µg/mL) | – | – | O=C(NCc1ccccc1)c1c(NC(=O)C(F)(F)F)sc2c1CCCC2 | – |
| 4.33 | 2.15 nM | – | – | -43 kJ/mol | 19.7 µM (≈ 8.11 µg/mL) | – | – | O=C(CN1CCCCC1)Nc1sc2c(c1C(=O)NCc1ccccc1)CCCC2 | – |
